± gives the standard deviation of the averaged measurements.
Columns and labels:
Details in all cases: 72 h
Caco-2 [1] = assay: cell viability relative to DMSO; higher = less toxic
Calu-3 [2] = assay: as above
HepG2 [3] = assay: as above
Vero E6 [4] = assay: as above
Caco-2 [5] = assay: relative viability EC50 (midpoint between 100% and the lowest measured viability); higher = less toxic
Calu-3 [6] = assay: as above
HepG2 [7] = assay: as above
Vero E6 [8] = assay: as above
Caco-2 [9] = assay: drug sensitivity score (DSS) for viability; higher = more toxic; extreme values may be limits of the assay
Calu-3 [10] = assay: as above
HepG2 [11] = assay: as above
Vero E6 [12] = assay: as above
U2OS [13] = assay: cell viability relative to DMSO; higher = less toxic
U2OS [14] = assay: relative viability EC50 (midpoint between 100% and the lowest measured viability); higher = less toxic
U2OS [15] = assay: drug sensitivity score (DSS) for viability; higher = more toxic; extreme values may be limits of the assay

SMILES	cell viability (Caco-2 [1]; 1 nM) [%]	cell viability (Caco-2 [1]; 10 nM) [%]	cell viability (Caco-2 [1]; 100 nM) [%]	cell viability (Caco-2 [1]; 1000 nM) [%]	cell viability (Caco-2 [1]; 10000 nM) [%]	cell viability (Calu-3 [2]; 1 nM) [%]	cell viability (Calu-3 [2]; 10 nM) [%]	cell viability (Calu-3 [2]; 100 nM) [%]	cell viability (Calu-3 [2]; 1000 nM) [%]	cell viability (Calu-3 [2]; 10000 nM) [%]	cell viability (HepG2 [3]; 1 nM) [%]	cell viability (HepG2 [3]; 10 nM) [%]	cell viability (HepG2 [3]; 100 nM) [%]	cell viability (HepG2 [3]; 1000 nM) [%]	cell viability (HepG2 [3]; 10000 nM) [%]	cell viability (Vero E6 [4]; 1 nM) [%]	cell viability (Vero E6 [4]; 10 nM) [%]	cell viability (Vero E6 [4]; 100 nM) [%]	cell viability (Vero E6 [4]; 1000 nM) [%]	cell viability (Vero E6 [4]; 10000 nM) [%]	relative viability EC50 (Caco-2 [5]) [µM]	relative viability EC50 (Calu-3 [6]) [µM]	relative viability EC50 (HepG2 [7]) [µM]	relative viability EC50 (Vero E6 [8]) [µM]	drug sensitivity score (Caco-2 [9])	drug sensitivity score (Calu-3 [10])	drug sensitivity score (HepG2 [11])	drug sensitivity score (Vero E6 [12])	cell viability (U2OS [13]; 1 nM) [%]	cell viability (U2OS [13]; 10 nM) [%]	cell viability (U2OS [13]; 100 nM) [%]	cell viability (U2OS [13]; 1000 nM) [%]	cell viability (U2OS [13]; 10000 nM) [%]	relative viability EC50 (U2OS [14]) [µM]	drug sensitivity score (U2OS [15])
CC(C)(C#N)c1ccc(N2C(=O)OCc3cnc4ccc(-c5cnc6ccccc6c5)cc4c32)cc1	107	108	102	75	77.4	110	97.3	110	68.3	41.5	116	113	96.4	100	89.6	109	104	103	97.4	84.6	> 10	0.939	> 10	> 10	3.7	7.1	0	0.5							
CC1=C(C(=O)Nc2cc3cn[nH]c3cc2F)C(c2ccc(C(F)(F)F)cc2)CC(=O)N1 (stereo not drawn)	83	89.6	91.3	99.1	102						100	103	104	95.6	92	102	104	101	82.5	84.4	> 10		> 10	> 10	0		0	2	94.9	97.9	92.3	96.8	86.3	> 10	0
CC1Oc2cc(cnc2N)-c2c(nn(C)c2C#N)CN(C)C(=O)c2ccc(F)cc21 (stereo not drawn)	89.2 ± 7.6	97 ± 8	96.15 ± 0.21	91.6 ± 4.1	83.4 ± 7.8	105 ± 5.7	95.5 ± 3.8	88.7 ± 2.4	74.8 ± 4.3	78.7 ± 7.5	95 ± 4.1	101 ± 9.8	99.3 ± 4.7	87.5 ± 6.2	72.2 ± 6.9	103 ± 4.9	92 ± 6.6	90.5 ± 2.6	80.2 ± 0.28	83.2 ± 7.3	> 10			> 10	0	4.85 ± 1.1	2.5 ± 1.6	3.35 ± 0.35	97.8 ± 2.6	103.8 ± 0.64	97.2 ± 2.4	96.6 ± 1.4	83.5 ± 8.1	> 10	0.7 ± 0.99
Cn1cc(-c2[nH]c3cc(NC(=O)[C@H](N)C4CCCCC4)cc4c3c2C=NNC4=O)cn1	106	98.2	97.8	104	25.9	109	98.7	114	66.7	51.2	97.3	103	91.5	50.9	30.7	95.4	99.4	98.3	95.3	84.5	3.48		0.493	> 10	3.7	6.5	10.3	0.6	99.9	98.4	96.3	8.5	4.2	0.324	17.1
NC(=O)c1cnc2[nH]ccc2c1N[C@@H]1[C@@H]2CC3C[C@H]1C[C@@](O)(C3)C2	101	101	90.5	104	113						113	112	107	109	47	95.4	97.6	99.6	107	101	> 10		3.87	> 10	0		2.3	0	96.4	97.1	96.5	93.1	67.2		2.6
Clc1cccc(/C=N/N=C/c2cccc(Cl)c2)c1 [3,3'-dichlorobenzaldazine]	103	99.1	105	94.7	103	107	93.9	96.7	97.5	96.1	94.8	95.6	101	100	84.5	99.6	103	99.5	98.9	99.5	> 10	> 10	> 10	> 10	0	0	0.3	0							
